The values that follow come from a melting point compilation (Tetko et al.; mined from patent text by program, amines drawn as free bases though some values may be those of a salt).

Structures are written as SMILES. Bounds are passed on as bounds.

As to `N#Cc1ccc(CC(NC(=O)OCc2ccccc2)C(=O)NCC(=O)NCCC(=O)OCc2ccccc2)cc1` (racemic), the melting point was 134 to 135 °C.

As to `CC(C)c1ccc(C2c3[nH]c4ccccc4c3CCN2C(=O)C=Cc2cccc([N+](=O)[O-])c2)cc1` (stereo not drawn), the melting point was determined as 195 °C. Regarding `CC(C)(Oc1ccc2c(c1)CCc1c-2ccc2c1CCC2(C)C)C(=O)O`, the melting point was 167 to 170 °C. The value for `Nc1ccc(N2CCC(N3CCOCC3)CC2)c(C(F)(F)F)c1` was 118 to 120 °C. As for `Cn1nc(-c2cnc(N)nc2-c2cccc(F)c2)ccc1=O`, the melting point came to 212 °C. In the case of `Cc1cc(OC(=S)N(C)C)nc(C(Cl)(Cl)Cl)n1` it was 81 to 83 °C. In the case of `Cc1ccc2cccc(OCc3c(C)ccc([N+](=O)[O-])c3C)c2n1` it was 150 to 152 °C. In the case of `Cc1ccc2nc(/C=C/c3ccccc3)n(-c3ccccn3)c2c1` it was 164 to 165 °C; in that of `CS(=O)(=O)NCc1cc(Br)cc2[nH]c(=O)c(=O)[nH]c12`, greater than 300 °C; in that of `CC(=O)C#CC1CCC2C3CCC4CC(O)CCC4(C)C3CCC12C` (stereo not drawn), 148 to 150 °C. For `COC(=O)c1ccccc1C=Cc1ccc(Br)cc1`, the melting point fell in the range of 104 to 106 °C.

`CS(=O)(=O)c1c(C(N)=NO)nn(-c2c(Cl)cc(C(F)(F)F)cc2Cl)c1N` came in with a melting point of 132 to 134 °C.

The compound `CC1CCN(Cc2ccc(CCC(=O)Nc3ccc(-c4ccc(Cl)cc4)cc3)cc2)CC1` registered a melting point of 150 to 151 °C.

The compound `C=CCNc1nc(NCc2ccccc2)c2cc([N+](=O)[O-])ccc2n1` gave a melting point of 235 to 236 °C. In the case of `Oc1cccc2c1CC[C@H]1[C@@H]2CCN1CCC1CCCCC1` it was 130 to 133 °C; in that of `COc1ccccc1CNC(=O)c1ccc2c(c1)N(C(C)CN1CCCC1)c1ccccc1S2` (racemic), 127 °C; in that of `N#Cc1c(F)cccc1Nc1ccccc1`, 97 to 99 °C. `CC(=C1SCCS1)c1ccc(F)cc1`: the melting point is 27 to 31 °C. Regarding `CCC(=O)C1=C(O)OC(C)(C)OC1=O`, the melting point was 55 to 57 °C. The value for `Cc1cc(-c2sc(N3CCN(Cc4ccc(C(=O)N5CCCCC5)cc4)C3=O)nc2C)[nH]n1` was 182 to 183 °C; that for `Clc1ccc(-c2c(Cc3nnn[nH]3)cnn2-c2ccccc2)cc1` was 230 to 232 °C; that for `COC(=O)COc1ccc(OC/C=C(/c2ccc(Cl)cc2)c2ccc(I)cc2)cc1C` was 89 to 92 °C. Turning to `CC(C)C(NC(=O)NCc1ccccc1)C(=O)NC(Cc1ccccc1)C(O)C(Cc1ccccc1)NC(=O)C(NC(=O)NCc1ccccc1)C(C)C` (stereo not drawn), the melting point worked out at 238 °C. Regarding `C#CCNC(=O)N1c2ccccc2-c2noc3c2C1CCC3` (stereo not drawn), the melting point was 220 °C.

As for `CCOC(=O)C(C(=O)CCCCC(C)C)C1c2ccccc2C(=O)N1c1ccc2ccc(Cl)nc2n1` (stereo not drawn), the melting point was found to be 136 °C. `CCCCOCCOc1ccc(-c2ccc3c(c2)C=C(C(=O)Nc2ccc([C@H](O)c4ccccn4)cc2)CCN3S(C)(=O)=O)cc1` showed a melting point of 158 to 160 °C. The value for `CCO[C@H]1Cc2ccccc2[C@H]1Nc1nc(CC)c(-c2ccc(OC)cc2OC)nc1CC` was 120 to 121 °C. `COc1ccc(-n2cc(C(=O)N(CC(=O)O)c3ccc(OCC(C)(C)C)c(C#N)c3)c(C)n2)cc1` returned a melting point of 98 to 101 °C. Consider `CC1Oc2ccc(Br)c(C=NO)c2O1` (stereo not drawn), for which the melting point is 208 to 209 °C. `CCC(=Cc1ccccc1)C(=O)O` showed a melting point of 104 to 105 °C. Regarding `CC(=O)C(=Cc1ccc(Br)s1)C(C)=O`, the melting point is 70 to 74 °C. For the compound `Cc1cc(C#N)cc(C)c1Nc1nc(Nc2ccc(C#N)cc2)ncc1Br`, the melting point was 277 to 280 °C.

In turn, `CN1C2CCC1CC(n1cc(-c3ccc(Oc4ccccc4)cc3)c3c(N)ncnc31)C2` (stereo not drawn) showed a melting point of 238 to 250 °C. On to `O=P(O)(O)Cc1ccccc1C(F)(F)F`, for which the melting point lay in the range of 190 to 192 °C. In the case of `CN(C)S(=O)(=O)Oc1c(Cl)cc(C(C)(C)C)cc1CNC(=O)OC(C)(C)C` it was 122 to 123 °C; in that of `COc1ccc(CCNc2nc(N)c(N)c(N)n2)cc1`, 134 to 138 °C.

The compound `Cc1nnc(-c2ccc3occ(-c4ccc(C(C)O)cc4)c3c2)o1` (stereo not drawn) showed a melting point of 148 to 149 °C. The compound `O=Cc1c(Cl)nc2ccc(Cl)cn12` registered a melting point of 165 to 166 °C. The value for `CC1(C)CN=C(c2cc3cccc(NS(=O)(=O)c4cccs4)c3[nH]2)S1` was 176 to 177 °C; that for `FC(F)Sc1ccc(-n2cnnn2)cc1` was 94 to 97 °C.

Regarding `COc1cc(N)nc(N2CCOCC2)n1`, the melting point was in the range of 162 to 164 °C. In turn, `Fc1cc(Cl)c2nc(Cl)sc2c1N=C=S` showed a melting point of 80 to 81 °C.

`O=CNCCSc1ccc2nccn2n1` returned a melting point of 148 to 151 °C. In the case of `Cc1cccc(C(=O)CSC(=S)Nc2ccc(Cl)cn2)c1` it was 126 °C; in that of `COC(C)COC1C(n2cc(C)c(=O)[nH]c2=O)OC(COCc2ccccc2)(COS(=O)(=O)c2ccc(C)cc2)C1(CCO)OCc1ccccc1` (stereo not drawn), 90 to 92 °C; in that of `CCCCCCCCCCOC(=O)c1ccc(O)c(OC)c1`, 40 to 40.5 °C. `CN1Cc2c(Cc3ccc4c(c3)C(=O)NC4=O)ncn2-c2ccsc2C1=O` yielded a melting point of 245 to 246 °C. `FC(F)(F)c1cc(Cl)c(-n2ncc(-c3nc(C(F)(F)F)c[nH]3)n2)c(Cl)c1` showed a melting point of 262 to 264 °C. In the case of `COc1ccc2c3c(ccc2c1)OC(=O)CC3` it was 122 to 123 °C; in that of `O=c1n(-c2cccc(Cl)c2)c(=O)n(SC(Cl)(Cl)Cl)n1SC(Cl)(Cl)Cl`, 153 °C; in that of `O=P(O)(O)C(c1ccc2cc(O)ccc2c1)P(O)(O)=S` (stereo not drawn), 210 to 211 °C. In the case of `CCOC(=O)c1cc(Br)cc(C(=O)OCC)n1` it was 95 to 96 °C; in that of `COc1cccc(-c2ccc3c(c2)C2(CCCCC2)C(=NOCc2ccccc2)N3)c1`, 101 to 104 °C.

With `CCOC(=O)COc1cc(C(C)(C)C)c(SC2=C(O)CC(CCc3ccc(O)cc3)(CCc3ccc(O)cc3)OC2=O)cc1C`, the melting point lay in the range of 162 to 163 °C. In the case of `Cc1nc(N)nc(N)c1-c1cc(Cl)cc(Cl)c1` it was 242 to 244 °C; in that of `N#Cc1ccc2cc(OCCC(c3ccccc3)(c3ccccc3)c3ccccc3)ccc2c1`, 207 to 208 °C; in that of `NCCC(=O)NCCCO`, 140 to 142 °C.

Compound `CCOC(=O)C1CCc2c(n(C(C)=O)c3ccc(Cl)cc23)C1` (stereo not drawn) displayed a melting point of 95 to 96 °C. The value for `COC(=O)c1ccc(CC(=O)c2ccc3c(c2)C(C)(C)CCC3(C)C)cc1` was 103 to 104 °C. The value for `CCOc1ccc(NC(=S)SC)cc1F` was 108 °C; that for `O=C(Nc1cc(C(F)(F)F)cc(C(F)(F)F)c1)[C@H]1CC=CC[C@H]1C(=O)O` (relative stereo) was 166 to 167 °C. The value for `Cc1nc2cccc(OCC(C)(C)C(=O)NCC3CC3)c2c(N)c1C(=O)O` was 177 to 179 °C; that for `COc1ccc(C(=O)NC(=O)Nc2cc3c(cc2F)/C(=C/c2[nH]c(C)c(CCC(=O)O)c2C)C(=O)N3)c(F)c1` was greater than 300 °C.

By melting point is commonly meant the temperature, or range, at which the solid turns liquid.
